PubChem BioAssay (NCI)
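Growth conditions: 96-well plates. Treatment: test compound, 48 hours, 5 concentrations. Analysis: linear interpolation between bracketing concentrations; unreached endpoints set to highest concentration. TGI is the concentration that stops growth completely.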

Tests used:
Test in all cases: DTP human tumour cell line panel, 48 h
[1] = test system: HCT-116 colon
[2] = test system: RXF 393 renal
[3] = test system: HCT-15 colon
[4] = test system: MCF7 breast
[5] = test system: COLO 205 colon
[6] = test system: OVCAR-3 ovarian
[7] = test system: K-562 leukemia
[8] = test system: SF-268 CNS
[9] = test system: LOX IMVI melanoma
[10] = test system: SK-MEL-5 melanoma

| SMILES | TGI [1] [µM] | TGI [2] [µM] | TGI [3] [µM] | TGI [4] [µM] | TGI [5] [µM] | TGI [6] [µM] | TGI [7] [µM] | TGI [8] [µM] | TGI [9] [µM] | TGI [10] [µM] |
| --- | --- | --- | --- | --- | --- | --- | --- | --- | --- | --- |
| N#CCc1[nH]nc2nc(SCc3ccccc3)nc(N3CCCCC3)c12 | 32.4 | 32.2 | > 100 | 40.4 | 34.7 | 37.4 | 34.6 | 36.7 | 43 | 32.8 |
| CC(=O)C1(c2ccccc2)CCCN(C)CC1 (stereo not drawn) | > 100 |  | > 100 | > 100 | > 100 | > 100 |  |  | > 100 | > 100 |
| O=C1c2ccccc2-c2ccc(O)cc21 | > 100 | 32.9 | 49.6 | 67.2 | 58.4 |  | 94.7 | 47.2 | 97.5 | 45.4 |
| COc1ccc(OC)c2sc(N3C(=O)/C(=C/c4ccccc4S)N=C3c3ccccc3)nc12 | 78.2 | 58.5 | > 100 | 36.5 | > 100 | > 100 | > 100 | > 100 | 60.4 | 40.6 |
| CCn1cc(C(=O)O)c(=O)c2cc(F)c(N3CCN(Cn4c(O)c(N=NC(=O)c5ccncc5)c5cc(Cl)ccc54)CC3)cc21 | > 100 | 51.3 | > 100 | > 100 | > 100 | > 100 | > 100 | > 100 | > 100 | > 100 |
| CCC(C)C(NC(=O)C(CCCCN)NC(=O)C(NC(=O)C(CCC(N)=O)NC(=O)C(CCCNC(=N)N)NC(C)=O)C(C)CC)C(=O)NC(Cc1c[nH]c2ccccc12)C(=O)NC(Cc1ccccc1)C(=O)NC(CCC(N)=O)C(=O)NC(CC(N)=O)C(=O)NC(CCCNC(=N)N)C(=O)NC(CCCNC(=N)N)C(=O)NC(CCSC)C(=O)NC(CCCCN)C(=O)NC(Cc1c[nH]c2ccccc12)C(=O)NC(CCCCN)C(=O)NC(CCCCN)C(N)=O (stereo not drawn) | > 50 | > 50 | > 50 | > 50 | > 50 | > 50 | > 50 | > 50 | > 50 | > 50 |
| COC1CCC(OS(C)(=O)=O)CO1 (stereo not drawn) | > 100 | > 100 |  |  | > 100 | > 100 | > 100 | > 100 |  |  |
| CN1CCC23c4ccccc4NC1C21CCN(C)C3Nc2ccccc21 | > 375 | > 375 | > 375 | > 375 | > 375 | > 375 | > 187 |  | > 375 | > 174 |
| S=C(NCCCCCCNC(=S)Nc1c2ccccc2nc2ccccc12)Nc1c2ccccc2nc2ccccc12 | > 100 | > 100 | > 100 | > 100 | > 100 | > 100 | > 100 | > 100 | > 100 | > 100 |
| O=C1c2scnc2-c2nccc3c2c1nc1ccccc13 |  | 3.98 | 1.28 | 1.03 | 2.68 | > 100 | > 100 | > 100 | 0.508 |  |
| N=C(N)C(N=Nc1ccccc1)C(=N)N (stereo not drawn) | > 100 | > 100 | > 100 | > 100 | > 100 | > 100 | 99.1 | > 100 | > 100 | > 100 |
| CO[C@@]12C[C@@H](CNC(=O)c3cc(Br)c[nH]3)O[C@@H]1NC(=O)N2 | > 100 | > 100 | > 100 | > 100 | > 100 | > 100 |  | > 100 | > 100 | > 100 |
| COc1nc(C#CCCCC#N)nc(OC)n1 | 41.3 | 30.9 | 18.3 | 22.1 | > 100 | 28 | > 100 | 94.4 | 14.2 | 28.2 |
| Cc1nc(Cl)c(C)c(Cl)n1 | > 100 | > 100 | > 100 | > 100 | > 100 | > 100 | > 91.9 | > 100 | > 100 | > 100 |
